In publication PMC9176681, “Evaluation of a flavonoid library for inhibition of interaction of HIV-1 integrase with human LEDGF/p75 towards a structure–activity relationship” (Annals of Medicine, 2022):
pIC50, pKd: −log10 of the molar value. Where “and” joins values, the source holds several entries; their conditions need not be identical. Identical values can stand only once.

Molecular target: T1, IN-LEDGF/p75 interaction (Human immunodeficiency virus type 1 group M subtype B, UniProt P12497, C1427S/F1332K)
T1 construct: His6 (C); made in house; host or cells: E. coli
Assay: biochemical
Assay type: binding, HIV-1
Conditions: not given
Description: The inhibitory activities against the IBD-IN interaction were tested using HTRF assays according to a previous study. […] “Protein MIX” was prepared by mixing His6-HIV-1 IN (final concentration of 50 nM) and GST-IBD (final concentration of 25) in the assay buffer (25 mM Tris-HCl pH 7.5, 150 mM NaCl, 1 mg/ml BSA, 0.1% NP40, 2 mM MgCl2). […] To the 8 μl “protein MIX”, 2 μl of DMSO or compound (50 µM) dissolved in DMSO was added and mixed thoroughly. The concentrations of DMSO in the assay should be no more than 4%. The plate was incubated for 30 min at 25 °C. Then 10 μl premixed antibodies were added and mixed. The assay plate was incubated in the dark for 1 h at 25 °C. DMSO instead of the compound was used as a negative control. BI224436 was used as a positive compound for inhibition of IN-LEDGF/p75 interaction. […] Data were analysed and visualised in GraphPad Prism 5.0.
Work on `Cc1nc2ccccc2c(-c2ccc3c4c(ccnc24)CCO3)c1[C@H](OC(C)(C)C)C(=O)O` [BI224436, reference compound] yielded a pIC50 of 7.73.

Same assay, conditions: HTRF, 50 μM final concentration
With `CC(C)=CCc1cc(-c2oc3cc(O)c(CC=C(C)C)c(O)c3c(=O)c2O)ccc1O` [compound 1] the “inhibitory activity against IN-LEDGF/p75 interaction (in words)” value (“inhibitory activity” for short) was “reduced”. For `CC(C)=CCc1cc(-c2oc3cc(O)cc(O)c3c(=O)c2O)ccc1O` [compound 2], the “inhibitory activity” value was “reduced”. With `COc1cc(-c2oc3cc(O)cc(O)c3c(=O)c2O)ccc1O` [compound 3] the “inhibitory activity” value was “reduced”. With `COc1ccc(-c2oc3cc(O)cc(O)c3c(=O)c2O)cc1` [compound 4] the “inhibitory activity” value was “reduced”. With `O=c1c(O)c(-c2ccc(O)c(O)c2)oc2cc(O)cc(O)c12` [compound 10] the “inhibitory activity” value was “effectively inhibited”. With `COc1ccc(-c2oc3cc(O)cc(O)c3c(=O)c2O)cc1O` [compound 12] the “inhibitory activity” value was “reduced”. For `COc1cc(O)c2c(=O)c(OC)c(-c3ccc(O)c(OC)c3)oc2c1` [compound 14], the “inhibitory activity” value was “reduced”. For `COc1ccc(-c2oc3cc(O)cc(O)c3c(=O)c2OC)cc1O` [compound 15], the “inhibitory activity” value was “reduced”. With `COc1cc2oc(-c3ccc(O)c(O)c3)c(OC)c(=O)c2c(O)c1OC` [compound 16] the “inhibitory activity” value was “effectively inhibited”. For `COc1cc(-c2oc3cc(O)c(OC)c(O)c3c(=O)c2OC)ccc1O` [compound 17], the “inhibitory activity” value was “reduced”. In the case of `COc1cc(-c2oc3cc(OC)c(OC)c(O)c3c(=O)c2OC)ccc1O` [compound 19], the “inhibitory activity” value was “reduced”. In the case of `O=c1cc(-c2ccc(O)c(O)c2)oc2cc(O)cc(O)c12` [compound 30, Luteolin], the “inhibitory activity” value was “most potent”. For `O=C1c2ccc(O)cc2OC(c2cc(O)c(O)c(O)c2)C1O` (stereo not shown) [compound 43], the “inhibitory activity” value was “efficiently blocked”. In the case of `O=C1c2c(O)cc(O)cc2OC(c2cc(O)c(O)c(O)c2)[C@H]1O` (stereo partly shown) [compound 47], the “inhibitory activity” value was “efficiently blocked”. With `COc1cc(O)c2c(c1)OC(c1ccc(O)cc1)CC2=O` (stereo not shown) [compound 49] the “inhibitory activity” value was “loss of activity”. With `COc1cc(C2CC(=O)c3c(cc(O)c(OC)c3O)O2)cc(O)c1OC` (stereo not shown) [compound 50] the “inhibitory activity” value was “loss of activity”. In the case of `COc1c(O)cc2c(c1O)C(=O)CC(c1ccc(O)cc1)O2` (stereo not shown) [compound 52], the “inhibitory activity” value was “loss of activity”. With `COc1c(O)cc(O)c2c1O[C@@H](c1ccccc1O)CC2=O` [compound 60] the “inhibitory activity” value was “loss of activity”. In the case of `CC(C)=CCc1c(O)ccc2c1O[C@@H](c1ccc(O)cc1)CC2=O` [compound 64], the “inhibitory activity” value was “loss of activity”. For `Oc1cc(O)c2c(c1)O[C@H](c1cc(O)c(O)c(O)c1)[C@H](O)C2` [compound 68], the “inhibitory activity” value was “effectively blocked”. With `Oc1cc(O)c2c(c1)O[C@H](c1ccc(O)c(O)c1)[C@@H](O)C2` [compound 70] the “inhibitory activity” value was “effectively blocked”. For `Oc1cc(O)c2c(c1)O[C@H](c1ccc(O)c(O)c1)[C@H](O)C2` [compound 71], the “inhibitory activity” value was “effectively blocked”. In the case of `COc1cc(O)c(OC)c(O)c1C(=O)/C=C/c1ccccc1` [compound 89], the “inhibitory activity” value was “drop in protein-protein interaction disruption”. For `COc1ccccc1/C=C/C(=O)c1c(OC)cc(O)c(OC)c1O` [compound 93], the “inhibitory activity” value was “drop in protein-protein interaction disruption”. For `COc1cc(O)c(CC=C(C)C)c(O)c1C(=O)/C=C/c1ccc(O)cc1` [compound 95], the “inhibitory activity” value was “drop in protein-protein interaction disruption”. For `C=C(C)C(O)Cc1c(O)cc(OC)c(C(=O)/C=C/c2ccc(O)cc2)c1O` (stereo not shown) [compound 96], the “inhibitory activity” value was “drop in protein-protein interaction disruption”. For `COc1cc(O)c(C(=O)/C=C/c2ccccc2)c(O)c1OC` [compound 99], the “inhibitory activity” value was “drop in protein-protein interaction disruption”. For `O=c1c(-c2ccc(O)cc2)coc2cc(O)cc(O)c12` [genistein], the “inhibitory activity” value was “worst inhibitory activity”.

Molecular target: T2, IN (Human immunodeficiency virus type 1 group M subtype B, UniProt P12497, C1427S/F1332K)
T2 construct: His6 (C); made in house; host or cells: E. coli
Assay: Biolayer interferometry (BLI) binding assay
Design: species or system HIV-1
Conditions: 30 °C, PBS with 0.01% Tween-20
`O=c1cc(-c2ccc(O)c(O)c2)oc2cc(O)cc(O)c12` [compound 30, Luteolin] gave a pKd of 5.89. `O=C1c2ccc(O)cc2OC(c2cc(O)c(O)c(O)c2)C1O` (stereo not shown) [dihydrorobinetin] showed a pKd of 5.85. With `Oc1cc(O)c2c(c1)O[C@H](c1ccc(O)c(O)c1)[C@H](O)C2` [epicatechin] the pKd was 5.77. With `O=c1c(-c2ccc(O)cc2)coc2cc(O)cc(O)c12` [genistein] the pKd was 5.44 and 5.57. With `COc1cc(O)cc(O)c1C(=O)/C=C/c1ccc(O)cc1` [helichrysetin] the pKd was 5.57. Work on `O=c1c(O)c(-c2cc(O)c(O)c(O)c2)oc2cc(O)cc(O)c12` [myricetin] yielded a pKd of 6.00. In the case of `O=C1C[C@@H](c2ccc(O)cc2)Oc2cc(O)cc(O)c21` [naringenin], the pKd was 5.85 and 5.72.

Molecular target: T1, IN-LEDGF/p75 interaction
Assay: not given
Design: method as in PMID 24663024
Conditions: previous experiment result; read-out: IC50, inhibition of IN-LEDGF/p75 interaction, previous experiment result; cited from earlier work
For `Cc1nc2ccccc2c(-c2ccc3c4c(ccnc24)CCO3)c1[C@H](OC(C)(C)C)C(=O)O` [BI224436, reference compound], the pIC50 is listed as 7.96.
